Marks after values point to notes of the source that are not given here.
Experiments:
CDAA/high-fat fed mice = experiment: Hepatic fibrosis by Sirius Red (SR) morphometry, CDAA/high-fat diet mouse model; type: in vivo
Experimental: In Biological Examples 1-7, studies were performed in male C56BL/6J mice (9 weeks old). Mice were fed either choline-sufficient (CS) or choline deficient high-fat diets (31% total calories; “CDAA/high-fat”). The NASH inducing diet was instigated 6 weeks prior to the commencement of treatment in order to design the study as a treatment/reversal set-up rather than prophylaxis.
In Biological Examples 1-5, mice were divided into 6 experimental groups (n=9 per group) and fed either CS or CDAA/high-fat diets. […] Hepatic fibrosis was assessed by both measurement of hydroxyproline (HYP) content and Sirius Red (SR) morphometry. Fibrosis, inflammation and metabolism related transcripts levels were measured by quantitative real-time polymerase chain reaction (qPCR).
In order to more accurately quantify the amount location and functional relevance of the hepatic fibrosis, Sirius Red (SR) morphometry was performed. In contrast to examples 1 and 2 where biochemical assessment of hydroxyproline (HYP) content measuring collagen in the large vessels was used, SR morphometry quantifies the more functionally relevant sinusoidal collagen deposits. 10 areas per slide were measured using 100× magnification.

STAM (model) mice [1] = experiment: NAFLD activity score (NAS) in streptozotocin/high-fat diet NASH model (STAM model); type: in vivo, mouse; conditions: 6 weeks treatment, Compound A 37 mg/kg/day oral gavage, telmisartan positive control
Excerpt: (§1) In Biological Example 8, pathogen-free 15-day-pregnant C57BL/6 mice were obtained from Charles River Laboratories in Japan Inc. (Kanagawa, Japan). NASH was established in male mice by a single subcutaneous injection of streptozotocin (STZ) (Sigma, USA) after birth and feeding with a high fat diet (HFD; CLEA) Japan, Japan) ad libitum after 4 weeks of age (day 28±2). Mice were randomised into 3 groups of 8 mice at 6 weeks of age the day before the start of treatment: vehicle (saline), Compound A and telmisartan (positive control). Treatment with Compound A at a dose of 37 mg/kg bw per day via oral gavage in conjunction with a high-fat diet was given for 6 weeks before sacrifice. NAFLD activity score (NAS) was calculated according to standardised criteria and fibrosis area was assessed via Sirius Red staining.

STAM (model) mice [2] = experiment: Fibrosis area by Sirius Red staining, STAM model; type: in vivo, mouse; conditions: Sirius Red positive area, 6 weeks treatment, Compound A 37 mg/kg/day oral gavage
Excerpt: as §1

[3] = system: canonical genes regulating hepatic fibrogenesis; experiment: Hepatic fibrogenic gene expression by RNA sequencing in ob/ob AMLN mice; type: in vivo, mouse; conditions: 4 weeks, Compound A 112 mg/kg, pioglitazone 30 mg/kg
Experimental: (§2) Obese diet-induced B6.V-Lepob/Jrj mice (ob/ob) are consistently fibrosis (liver) prone when cholesterol (2%), 40% fat (containing 18% trans-fatty acids) and 20% fructose are added to a high-caloric diet (i.e., AMLN high-fat diet). ob/ob mice on AMLN diet (termed ‘ob/ob AMLN mice’) develop steatohepatitis and fibrosis within a shorter timeframe ([…]) compared with wild-type C57BL/6 mice (AMLN mice) fed the same diet. ob/ob AMLN mice provide an obese diet-induced model of NASH that also allows the study of effects on glycemic control. Development of NASH in the ob/ob AMLN model is confirmed by biopsy.
In Biological Examples 10-12, 15, and 19, studies were performed in male ob/ob mice (5 weeks old) fed an AMLN high-fat diet for 15 weeks, then randomized into 3 groups (n=10 per group) to receive either 112 mg/kg bw per day of Compound A via diet, 30 mg/kg bw per day pioglitazone via diet or no treatment (vehicle) for a further 4 weeks. An oral glucose tolerance test (OGTT) was performed at week 3. Hepatic fibrosis was assessed via measurements of hepatic fibrogenic/fibrolytic gene expression by RNA sequencing at 4 weeks.

col1A1 = experiment: Hepatic col1A1 content by quantitative IHC in ob/ob AMLN mice; type: in vivo, mouse; conditions: 8 weeks
Experimental: as §2
In Biological Examples 10, 13-14, and 16-18, studies were performed in male ob/ob mice (5 weeks old) fed an AMLN high-fat diet for 18 weeks, then randomized into 6 groups (n=10 per group) to receive either Compound A (at 3 different daily doses, 45 mg/kg, 90 mg/kg or 135 mg/kg) via diet, 30 mg/kg bw per day obeticholic acid (OCA) via diet, or no treatment (vehicle) for a further 8 weeks. Assessment of NASH related parameters and fibrosis was made at study end by quantitative immune histochemistry (IHC) measurements.

[4] = system: LX-2 human hepatic stellate cells; experiment: LX-2 cell viability by MTS assay; type: cell-based; conditions: LX-2 cells; 24 hours; Compound A 10-75 μM, OA 75 μM
Experimental: Stellate cells are resident liver cells and the major cell type involved in the initiation and progression of liver fibrosis. In Biological Example 20, in vitro studies were performed on cultured human stellate cells (LX-2 cells) to assess direct effects of Compound A on these cells. Cells were treated for 24 hours with Compound A (10 μM, 25 μM, 50 μM, or 75 μM) or oleic acid (OA; 75 μM) and bromodeoxyuridine (BrdU) incorporation was assessed to determine effects on proliferation. A MTS (3-(4,5-dimethylthiazol-2-yl)-5-(3-carboxymethoxyphenyl)-2-(4-sulfophenyl)-2H-tetrazolium) assay was used to determine cell viability.
Cell proliferation of LX-2 human hepatic stellate cells treated for 24 hours with 10-75 μM of Compound A or oleic acid (OA) (75 μM) was assessed by BrdU incorporation. The results are normalised mean values ±S.E.M. of 5 independent experiments for icosabutate and 2 independent experiments for OA. […] The reduction in proliferation by Compound A was 25-34% at 24 hours whereas OA had no effect. The comparisons were made by one-way ANOVA with Dunnett's correction for multiple comparisons.

CC/C=C\C/C=C\C/C=C\C/C=C\C/C=C\CCCCOC(CC)C(=O)O (stereo not shown) [Compound A, 2-((5Z,8Z,11Z,14Z,17Z)-icosa-5,8,11,14,17-pentaenyloxy)butanoic acid] was tested, and the “Fibrosis area (mean %)” value (CDAA/high-fat fed mice; HD 0.3 mmol/kg bw per day) was 1.56* %, the “Fibrosis area (mean %)” value (CDAA/high-fat fed mice; LD 0.15 mmol/kg bw/day) was 0.76*** % and the Hepatocellular ballooning (STAM (model) mice [1]) was 1. The Lobular inflammation (STAM (model) mice [1]) was 0.88, the “NAS score (mean ± SD)” value (STAM (model) mice [1]) was 2.3 ± 1.5 and the Steatosis (STAM (model) mice [1]) was 0.12. For the same molecule, the “Fibrosis area (%)” value (STAM (model) mice [2]) was 0.79%, the “hepatic HSP47 expression” value [3] was “significantly reduced” and the “hepatic PDGF-β expression” value [3] was “significantly reduced”. The “hepatic PDGFR-β expression” value [3] was “significantly reduced”, the “hepatic col1A1 expression” value [3] was “significantly reduced” and the “hepatic col3A1 expression” value [3] was “significantly reduced”. For the same molecule, the “hepatic col4A1 expression” value [3] was “significantly reduced”, the “col1A1 content compared with pre-biopsy content” value (col1A1; Compound A 45 mg/kg) was “trend towards decreased col1A1 content” and the “col1A1 levels as a percentage of total surface area” value (shortened to “col1A1 levels as a percentage”) (col1A1; Compound A 45 mg/kg) was “not statistically significant”. For the same molecule, the “col1A1 levels as a percentage” value (col1A1; Compound A 90 mg/kg) was “significant reduction”, the “total col1A1 content” value (col1A1; Compound A 90 mg/kg) was “reduced” and the “col1A1 content compared with pre-biopsy content” value (col1A1; Compound A 90 mg/kg, decrease, p<0.005) was “statistically significant”. The “col1A1 content compared with pre-biopsy content” value (col1A1; Compound A 135 mg/kg) was “trend towards decreased col1A1 content”, the “col1A1 levels as a percentage” value (col1A1; Compound A 135 mg/kg) was “not statistically significant” and the “total col1A1 content” value (col1A1; Compound A 135 mg/kg) was “reduced”. For the same molecule, the “cell viability (MTS assay)” value [4] was “neither Compound A nor OA showed a significant effect”.
